Peptide text beside a SMILES is read from it.
Legend:
Assay in all cases: Antibacterial activity, ATP assay (BacTiter-Glo)
Format in all cases: cell-based
[1] = system: Staphylococcus aureus ATCC29213; details: for antibacterial activity against Staphylococcus aureus compared with AG30-5C: 10 μg/mL, ATP assay; for ATP (%) mean, Staphylococcus aureus: Table 4-1, ATP assay concentration: peptides 10, TOB 1.0, OX 0.5 μg/ml
Method: (§1) The antibacterial activity of the polypeptides was measured using an ATP assay method. That is, using BacTiter-Glo Microbial Cell Viability Assay kit available from PROMEGA, the antibacterial activity of the peptides was evaluated from the viability of bacteria. […] With respect to the strains, Staphylococcus aureus ATCC29213 (S. aureus ATCC29213) as Gram-positive bacteria, or, alternatively, Pseudomonas aeruginosa (P. aeruginosa ATCC27853) as Gram-negative bacteria, was used. The bacteria were cultured in media for 3 to 4 hours, and thereafter absorbances at A600 were measured. Bacterial suspensions were diluted with Mueller-Hinton broth (MHB) according to McFarland #0.5. Each strain was added so as to attain about 0.5−1×10^5 CFU/mL (final concentration) in terms of Escherichia coli. […] A solution to which the peptides were not added was considered as a negative control, and a solution to which tobramycin (TOB) was added was considered as a positive control. […] Relative values were calculated by comparison with the negative control, and these values were regarded as the viability. ATP (%) of the antibacterial activity was measured in the same manner as mentioned above, and the “minimum inhibitory concentration (MIC)” was measured as follows. MIC is the lowest concentration of an agent that may inhibit the growth of a bacterium. MIC is used as a parameter for the efficacy of an antibacterial agent, for the strength of bacterial sensitivity, or the like. The bacteria can grow (proliferate) when the concentration is not higher than MIC, and cannot grow when the concentration is higher than MIC. Its measurement is carried out according to a method defined as a standard method by Japanese Society of Chemotherapy or CLINICAL AND LABORATORY […] (CLSI), but, in this Example, its measurement was carried out by a broth microdilution method in accordance with “M100-S17/M7-A7” (Performance Standards for Antimicrobial Susceptibility Testing; Seventeenth Informational Supplement, Vol. 27 No. 1) published by CLSI on January, 2007. That is, sensitivity test of agents was carried out using a microtiter plate or test tubes. With respect to each strain, Escherichia coli: ATCC 25922 (Escherichia coli ATCC 25922), Pseudomonas aeruginosa: ATCC 27853 (Pseudomonas aeruginosa ATCC 27853), Staphylococcus aureus: ATCC29213 (Staphylococcus aureus ATCC29213), Klebsiella pneumoniae: JCM 1662 (Klebsiella pneumoniae JCM 1662), enterobacteria (1): JCM 1232 (Enterobacter cloacae JCM 1232), enterobacteria (2): JCM 1235 (Enterobacter aerogenes JCM 1235), and Staphylococcus epidermidis: JCM 2414 (Staphylococcus epidermidis JCM 2414), were used. […] As the concentrations of the agents in ATP assay, the concentrations as described in the Tables were used.

[2] = system: Pseudomonas aeruginosa ATCC27853; details: for ATP (%) mean, Pseudomonas aeruginosa: Table 4-1, ATP assay concentration: peptides 10, TOB 1.0, CPFX 1.0, OX 0.5, MEPM 1.0 μg/ml
Method: as §1

[3] = system: Klebsiella pneumoniae JCM 1662; details: ATP assay concentration: peptides 10, TOB 4.0, CPFX 1.0, OX 0.5, MEPM 8.0 μg/ml
Method: (§2) That is, using BacTiter-Glo Microbial Cell Viability Assay kit available from PROMEGA, the antibacterial activity of the peptides was evaluated from the viability of bacteria. […] With respect to the strains, Staphylococcus aureus ATCC29213 (S. aureus ATCC29213) as Gram-positive bacteria, or, alternatively, Pseudomonas aeruginosa (P. aeruginosa ATCC27853) as Gram-negative bacteria, was used. The bacteria were cultured in media for 3 to 4 hours, and thereafter absorbances at A600 were measured. Bacterial suspensions were diluted with Mueller-Hinton broth (MHB) according to McFarland #0.5. Each strain was added so as to attain about 0.5−1×10^5 CFU/mL (final concentration) in terms of Escherichia coli. […] A solution to which the peptides were not added was considered as a negative control, and a solution to which tobramycin (TOB) was added was considered as a positive control. […] Relative values were calculated by comparison with the negative control, and these values were regarded as the viability. […] ATP (%) of the antibacterial activity was measured in the same manner as mentioned above, and the “minimum inhibitory concentration (MIC)” was measured as follows. MIC is the lowest concentration of an agent that may inhibit the growth of a bacterium. MIC is used as a parameter for the efficacy of an antibacterial agent, for the strength of bacterial sensitivity, or the like. The bacteria can grow (proliferate) when the concentration is not higher than MIC, and cannot grow when the concentration is higher than MIC. Its measurement is carried out according to a method defined as a standard method by Japanese Society of Chemotherapy or CLINICAL AND LABORATORY […] (CLSI), but, in this Example, its measurement was carried out by a broth microdilution method in accordance with “M100-S17/M7-A7” (Performance Standards for Antimicrobial Susceptibility Testing; Seventeenth Informational Supplement, Vol. 27 No. 1) published by CLSI on January, 2007. That is, sensitivity test of agents was carried out using a microtiter plate or test tubes. With respect to each strain, Escherichia coli: ATCC 25922 (Escherichia coli ATCC 25922), Pseudomonas aeruginosa: ATCC 27853 (Pseudomonas aeruginosa ATCC 27853), Staphylococcus aureus: ATCC29213 (Staphylococcus aureus ATCC29213), Klebsiella pneumoniae: JCM 1662 (Klebsiella pneumoniae JCM 1662), enterobacteria (1): JCM 1232 (Enterobacter cloacae JCM 1232), enterobacteria (2): JCM 1235 (Enterobacter aerogenes JCM 1235), and Staphylococcus epidermidis: JCM 2414 (Staphylococcus epidermidis JCM 2414), were used. […] As the concentrations of the agents in ATP assay, the concentrations as described in the Tables were used.

[4] = system: Enterobacteria (2): Enterobacter aerogenes JCM 1235; details: ATP assay concentration: peptides 10, TOB 4.0, CPFX 1.0, OX 4.0, MEPM 8.0 μg/ml
Method: as §2

[5] = system: Escherichia coli ATCC 25922; details: ATP assay concentration: peptides 10, TOB 1.0, CPFX 0.015, OX 0.5, MEPM 0.1 μg/ml
Method: as §2

[6] = system: Staphylococcus epidermidis JCM 2414; details: ATP assay concentration: peptides 10, TOB 1.0, CPFX 0.5, OX 0.5, MEPM 0.125 μg/ml
Method: as §2

Structure (SMILES): CC(C)C[C@H](NC(=O)[C@H](CCCCN)NC(=O)[C@H](CCCNC(=N)N)NC(=O)[C@H](CCCCN)NC(=O)[C@H](CC(C)C)NC(=O)[C@H](CCCNC(=N)N)NC(=O)[C@H](CCCCN)NC(=O)[C@H](CCCNC(=N)N)NC(=O)[C@H](CC(C)C)NC(=O)[C@H](CCCNC(=N)N)NC(=O)[C@H](CCCNC(=N)N)NC(=O)[C@H](CCCCN)NC(=O)[C@H](CC(C)C)NC(=O)[C@H](CCCNC(=N)N)NC(=O)[C@H](Cc1c[nH]cn1)NC(=O)[C@H](CC(C)C)NC(=O)[C@H](Cc1ccccc1)NC(=O)[C@H](CCCNC(=N)N)NC(=O)[C@H](CC(C)C)NC(=O)[C@@H](N)CCC(=O)O)C(=O)N[C@@H](CCCNC(=N)N)C(N)=O [SR-2] (H-ELRFLHRLKRRLRKRLKRKLR-NH2; N-terminus assumed)
- antibacterial activity against Staphylococcus aureus compared with AG30-5C [1]: higher antibacterial activity against Staphylococcus aureus than AG30-5C
- ATP (%) mean, Staphylococcus aureus [1]: 4.4%
- antibacterial activity against Pseudomonas aeruginosa compared with AG30-5C ([2]; 10 μg/mL, ATP assay): higher antibacterial activity against Pseudomonas aeruginosa than AG30-5C
- ATP (%) mean, Pseudomonas aeruginosa [2]: 1.0%
- ATP (%) mean, Klebsiella pneumoniae [3]: 9.1%
- ATP (%) mean, Enterobacteria (2) [4]: 15.3%
- ATP (%) mean, Escherichia coli [5]: 6.2%
- ATP (%) mean, Staphylococcus epidermidis [6]: 2.6%

Structure (SMILES): CC[C@H](C)[C@H](NC(=O)[C@H](CC(C)C)NC(=O)[C@@H](N)CCCCN)C(=O)N[C@@H](Cc1ccccc1)C(=O)N[C@@H](CC(C)C)C(=O)N[C@@H](Cc1c[nH]cn1)C(=O)N[C@@H](CCCNC(=N)N)C(=O)N[C@@H](CC(C)C)C(=O)N[C@@H](CCCCN)C(=O)N[C@@H](CCCNC(=N)N)C(=O)N[C@@H](CCSC)C(=O)N[C@@H](CCCNC(=N)N)C(=O)N[C@@H](CCCCN)C(=O)N[C@@H](CCCNC(=N)N)C(=O)N[C@@H](CC(C)C)C(=O)N[C@@H](CCCCN)C(=O)N[C@@H](CCCNC(=N)N)C(=O)N[C@@H](CCCCN)C(=O)N[C@@H](CC(C)C)C(=O)N[C@@H](CCCNC(=N)N)C(N)=O [SR-4] (H-KLIFLHRLKRMRKRLKRKLR-NH2; N-terminus assumed)
- antibacterial activity against Staphylococcus aureus compared with AG30-5C [1]: higher antibacterial activity against Staphylococcus aureus than AG30-5C
- ATP (%) mean, Staphylococcus aureus [1]: 1.0%
- ATP (%) mean, Pseudomonas aeruginosa [2]: 9.8%
- ATP (%) mean, Klebsiella pneumoniae [3]: 15.0%
- ATP (%) mean, Enterobacteria (2) [4]: 20.9%
- ATP (%) mean, Escherichia coli [5]: 13.0%
- ATP (%) mean, Staphylococcus epidermidis [6]: 5.5%

Structure (SMILES): CSCC[C@H](NC(=O)[C@H](CCCNC(=N)N)NC(=O)[C@@H](N)CCCCN)C(=O)N[C@@H](CCCNC(=N)N)C(=O)N[C@@H](CCCCN)C(=O)N[C@@H](CCCNC(=N)N)C(=O)N[C@@H](CC(C)C)C(=O)N[C@@H](CCCCN)C(=O)N[C@@H](CCCNC(=N)N)C(=O)N[C@@H](CCCCN)C(=O)N[C@@H](CC(C)C)C(=O)N[C@@H](CCCNC(=N)N)C(=O)N[C@@H](CC(C)C)C(=O)N[C@@H](Cc1c[nH]c2ccccc12)C(=O)N[C@@H](Cc1c[nH]cn1)C(=O)N[C@@H](CCCNC(=N)N)C(=O)N[C@@H](CCCCN)C(=O)N[C@@H](CCCNC(=N)N)C(=O)N[C@@H](Cc1ccc(O)cc1)C(=O)N[C@@H](CCCCN)C(=O)O [SR-5] (H-KRMRKRLKRKLRLWHRKRYK-OH; N-terminus assumed)
- ATP (%) mean, Staphylococcus aureus [1]: 24.2%
- ATP (%) mean, Pseudomonas aeruginosa [2]: 16.4%
- ATP (%) mean, Klebsiella pneumoniae [3]: 30.0%
- ATP (%) mean, Enterobacteria (2) [4]: 41.5%
- ATP (%) mean, Escherichia coli [5]: 27.0%
- ATP (%) mean, Staphylococcus epidermidis [6]: 3.6%

Structure (SMILES): CC[C@H](C)[C@H](NC(=O)[C@H](CC(C)C)NC(=O)[C@H](CCCCN)NC(=O)[C@H](CC(C)C)NC(=O)[C@@H](N)CCSC)C(=O)N[C@@H](Cc1ccccc1)C(=O)N[C@@H](CC(C)C)C(=O)N[C@@H](Cc1c[nH]cn1)C(=O)N[C@@H](CCCNC(=N)N)C(=O)N[C@@H](CC(C)C)C(=O)N[C@@H](CCCCN)C(=O)N[C@@H](CCCNC(=N)N)C(=O)N[C@@H](CCSC)C(=O)N[C@@H](CCCNC(=N)N)C(=O)N[C@@H](CCCCN)C(=O)N[C@@H](CCCNC(=N)N)C(=O)N[C@@H](CC(C)C)C(=O)N[C@@H](CCCCN)C(=O)N[C@@H](CCCNC(=N)N)C(=O)N[C@@H](CCCCN)C(=O)O [SR-1] (H-MLKLIFLHRLKRMRKRLKRK-OH; N-terminus assumed)
- antibacterial activity against Staphylococcus aureus compared with AG30-5C [1]: higher antibacterial activity against Staphylococcus aureus than AG30-5C
- ATP (%) mean, Staphylococcus aureus [1]: 5.2%
- ATP (%) mean, Pseudomonas aeruginosa [2]: 26.0%
- ATP (%) mean, Klebsiella pneumoniae [3]: 22.1%
- ATP (%) mean, Enterobacteria (2) [4]: 39.4%
- ATP (%) mean, Escherichia coli [5]: 18.4%
- ATP (%) mean, Staphylococcus epidermidis [6]: 5.2%

Structure (SMILES): C[C@@H](O)[C@H]1C(=O)N2C(C(=O)O)=C(S[C@@H]3CN[C@H](C(=O)N(C)C)C3)[C@H](C)[C@H]12 [MEPM, meropenem, reference compound]
- ATP (%) mean, Pseudomonas aeruginosa [2]: 20.2%
- ATP (%) mean, Klebsiella pneumoniae [3]: 11.9%
- ATP (%) mean, Enterobacteria (2) [4]: 2.3%
- ATP (%) mean, Escherichia coli [5]: 15.7%
- ATP (%) mean, Staphylococcus epidermidis [6]: 28.2%

— patent US9376470B2, “Polypeptide having angiogenesis-inducing activity and antibacterial activity, and use thereof for medical purposes” (FunPep Inc., priority 2008, dated 2016)
